The record followed here is ChEMBL document CHEMBL5465560, “Selectivity Literature for EUbOPEN Chemogenomic Library” (2024).

In assay [1] the test system is Epidermal growth factor receptor (Homo sapiens), P00533 [G719C]. The following applies: at 10 µM.
Assay [2] deals with T1, Interleukin-1 receptor-associated kinase 4 (Homo sapiens) (UniProt Q9NWZ3).
T1 sequence (whole entry): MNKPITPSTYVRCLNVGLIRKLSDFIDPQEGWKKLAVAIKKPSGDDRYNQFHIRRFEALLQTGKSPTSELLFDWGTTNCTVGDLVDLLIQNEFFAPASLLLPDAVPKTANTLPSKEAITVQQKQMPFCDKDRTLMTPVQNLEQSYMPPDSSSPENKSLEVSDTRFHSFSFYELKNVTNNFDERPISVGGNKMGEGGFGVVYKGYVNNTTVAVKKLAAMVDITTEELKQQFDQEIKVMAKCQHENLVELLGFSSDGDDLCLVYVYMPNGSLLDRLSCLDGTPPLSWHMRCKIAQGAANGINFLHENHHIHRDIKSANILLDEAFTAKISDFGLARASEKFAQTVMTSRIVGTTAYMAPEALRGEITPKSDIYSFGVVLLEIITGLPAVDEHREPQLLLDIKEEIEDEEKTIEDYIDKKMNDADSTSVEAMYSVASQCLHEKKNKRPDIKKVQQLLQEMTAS
Briefly: Selectivity interaction (ActivX KiNativ screen (ex vivo kinase selectivity in human PBMCs)) EUB0001619a IRAK4. In kind it is cell-based. Conditions: PBMC, at 1 µM.

Assay [3] concerns the target T2, Serine/threonine-protein kinase Sgk3 (Homo sapiens) (UniProt Q96BR1).
T2 sequence (whole entry): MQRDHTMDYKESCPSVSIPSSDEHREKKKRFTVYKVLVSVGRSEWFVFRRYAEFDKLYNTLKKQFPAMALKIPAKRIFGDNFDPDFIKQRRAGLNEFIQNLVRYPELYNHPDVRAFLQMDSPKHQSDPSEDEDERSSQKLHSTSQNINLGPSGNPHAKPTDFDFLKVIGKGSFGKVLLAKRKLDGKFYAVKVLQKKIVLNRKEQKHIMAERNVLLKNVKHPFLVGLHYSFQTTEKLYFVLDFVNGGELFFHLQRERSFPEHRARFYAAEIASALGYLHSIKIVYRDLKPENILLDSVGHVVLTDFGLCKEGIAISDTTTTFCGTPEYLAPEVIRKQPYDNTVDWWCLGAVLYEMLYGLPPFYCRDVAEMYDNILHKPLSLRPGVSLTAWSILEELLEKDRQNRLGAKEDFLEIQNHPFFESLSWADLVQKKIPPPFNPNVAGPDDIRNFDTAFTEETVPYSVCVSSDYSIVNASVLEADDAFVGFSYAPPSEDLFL
Briefly: Selectivity interaction (KinomeScan (DiscoverX)) EUB0000695a SGK3. Conditions: at 100 nM.

Assay [4] concerns the target Dual specificity mitogen-activated protein kinase kinase 2 (Homo sapiens) (UniProt P36507). The assay can be described thus: Selectivity interaction (ActivX KiNativ screen (kinase selectivity in THP-1 cell lysates)) EUB0000639a MAP2K2. In kind it is subcellular. The following applies: lysate, at 1 µM.
In assay [5] the target is Mitogen-activated protein kinase 9 (Homo sapiens, UniProt P45984). Briefly: Selectivity interaction (ActivX KiNativ screen (kinase selectivity in THP-1 cell lysates)) EUB0000639a MAPK9. In kind it is subcellular. Conditions: lysate, at 0.04 µM.
Mitogen-activated protein kinase 9, sequence (P45984 whole entry, looked up): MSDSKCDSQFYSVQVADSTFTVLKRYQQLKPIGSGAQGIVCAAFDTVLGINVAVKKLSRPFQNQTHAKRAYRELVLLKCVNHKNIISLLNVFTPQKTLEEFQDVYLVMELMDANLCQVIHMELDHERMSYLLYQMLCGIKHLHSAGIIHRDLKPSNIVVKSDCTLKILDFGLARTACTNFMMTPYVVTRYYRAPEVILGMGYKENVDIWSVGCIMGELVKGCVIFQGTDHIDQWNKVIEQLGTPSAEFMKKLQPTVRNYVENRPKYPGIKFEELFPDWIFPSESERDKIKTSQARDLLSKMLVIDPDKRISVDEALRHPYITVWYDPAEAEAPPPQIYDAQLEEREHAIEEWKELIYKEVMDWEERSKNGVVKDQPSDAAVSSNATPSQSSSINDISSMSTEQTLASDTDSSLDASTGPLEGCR
The target in assay [6] is T3, Protein kinase C iota type (Homo sapiens) (UniProt P41743).
T3 sequence (whole entry): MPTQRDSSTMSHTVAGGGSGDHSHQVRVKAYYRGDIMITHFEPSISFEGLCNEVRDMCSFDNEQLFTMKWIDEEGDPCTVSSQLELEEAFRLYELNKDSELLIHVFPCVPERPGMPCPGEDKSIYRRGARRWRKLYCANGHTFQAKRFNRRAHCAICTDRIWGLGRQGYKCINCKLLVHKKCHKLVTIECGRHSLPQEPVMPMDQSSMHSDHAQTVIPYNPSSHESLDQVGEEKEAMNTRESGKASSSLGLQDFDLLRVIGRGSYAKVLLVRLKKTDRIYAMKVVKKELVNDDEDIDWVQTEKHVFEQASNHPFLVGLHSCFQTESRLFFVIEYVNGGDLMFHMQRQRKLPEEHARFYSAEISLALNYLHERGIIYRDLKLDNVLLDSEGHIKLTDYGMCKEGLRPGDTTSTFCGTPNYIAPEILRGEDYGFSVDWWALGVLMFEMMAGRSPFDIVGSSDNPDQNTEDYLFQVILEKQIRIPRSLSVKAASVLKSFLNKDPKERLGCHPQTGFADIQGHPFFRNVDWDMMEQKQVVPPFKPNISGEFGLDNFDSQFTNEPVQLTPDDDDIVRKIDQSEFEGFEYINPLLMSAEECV
The assay can be described thus: Selectivity interaction (ActivX KiNativ screen (kinase selectivity in THP-1 cell lysates)) EUB0000639a PRKCI. In kind it is subcellular. Conditions: lysate, at 0.2 µM.

Assay [7] addresses Dual specificity mitogen-activated protein kinase kinase 2 (Homo sapiens) (UniProt P36507). The assay can be described thus: Selectivity interaction (KinomeScan (DiscoverX)) EUB0000045b MAP2K2.
Assay [8] addresses Glycogen synthase kinase-3 alpha (Homo sapiens, UniProt P49840). The assay can be described thus: Selectivity interaction (Ambit KINOMEscan and KiNATiv profiling in Jurkat cells) EUB0000090b GSK3A. In kind it is cell-based. Conditions: at 1 µM.
For assay [9], the system named is Hepatocyte growth factor receptor (Homo sapiens), P08581 [M1250T]. The assay can be described thus: (§1) Selectivity interaction (Ambit KINOMEscan and KiNATiv profiling in Jurkat cells) EUB0000090b MET. In kind it is cell-based. Conditions: at 1 µM.
The subject of assay [10] is Hepatocyte growth factor receptor (Homo sapiens), P08581 [Y1235D]. Described as §1. In kind it is cell-based. The following applies: at 1 µM.
Assay [11] has as its target Hepatocyte growth factor receptor (Homo sapiens, UniProt P08581). The description is as §1. In kind it is cell-based. The following applies: at 1 µM.
The target of assay [12] is E3 ubiquitin-protein ligase TRIM33 (Homo sapiens) (UniProt Q9UPN9). The assay can be described thus: Selectivity interaction (Human bromodomain panel (DSF assay)) EUB0000233b TRIM33. For orientation: DSF heats the sample and reads unfolding from a dye or from intrinsic fluorescence.
E3 ubiquitin-protein ligase TRIM33 (Homo sapiens), sequence (Q9UPN9 whole entry): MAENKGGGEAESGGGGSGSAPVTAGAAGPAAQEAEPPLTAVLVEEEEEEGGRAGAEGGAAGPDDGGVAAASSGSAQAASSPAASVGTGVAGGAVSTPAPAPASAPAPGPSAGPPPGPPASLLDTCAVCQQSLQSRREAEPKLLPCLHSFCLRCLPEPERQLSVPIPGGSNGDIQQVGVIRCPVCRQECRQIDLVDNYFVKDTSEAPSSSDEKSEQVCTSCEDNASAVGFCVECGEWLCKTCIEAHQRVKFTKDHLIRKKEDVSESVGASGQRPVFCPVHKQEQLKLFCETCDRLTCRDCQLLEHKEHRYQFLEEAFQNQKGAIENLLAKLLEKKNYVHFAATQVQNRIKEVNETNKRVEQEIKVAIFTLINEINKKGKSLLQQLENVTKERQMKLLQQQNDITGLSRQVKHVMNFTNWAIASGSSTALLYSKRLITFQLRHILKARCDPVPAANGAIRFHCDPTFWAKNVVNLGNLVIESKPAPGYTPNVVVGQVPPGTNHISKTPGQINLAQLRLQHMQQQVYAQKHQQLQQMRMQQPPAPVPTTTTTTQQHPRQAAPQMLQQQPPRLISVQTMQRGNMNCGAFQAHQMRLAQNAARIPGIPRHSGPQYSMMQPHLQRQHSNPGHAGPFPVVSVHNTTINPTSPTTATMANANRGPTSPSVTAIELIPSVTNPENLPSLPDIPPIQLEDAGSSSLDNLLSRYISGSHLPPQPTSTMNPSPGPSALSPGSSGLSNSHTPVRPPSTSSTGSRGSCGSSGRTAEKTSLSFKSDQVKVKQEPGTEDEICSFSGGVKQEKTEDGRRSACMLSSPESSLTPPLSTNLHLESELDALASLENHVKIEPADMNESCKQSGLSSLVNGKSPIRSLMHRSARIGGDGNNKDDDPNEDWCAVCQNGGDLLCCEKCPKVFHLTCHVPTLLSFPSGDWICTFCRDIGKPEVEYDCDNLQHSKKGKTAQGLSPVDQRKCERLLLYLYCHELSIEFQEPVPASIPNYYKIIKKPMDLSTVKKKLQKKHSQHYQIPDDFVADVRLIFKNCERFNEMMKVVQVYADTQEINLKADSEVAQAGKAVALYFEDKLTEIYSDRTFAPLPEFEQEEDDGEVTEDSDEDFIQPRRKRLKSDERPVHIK
Assay [13] addresses T4, Alpha-2A adrenergic receptor (Homo sapiens) (UniProt P08913).
T4 sequence (whole entry): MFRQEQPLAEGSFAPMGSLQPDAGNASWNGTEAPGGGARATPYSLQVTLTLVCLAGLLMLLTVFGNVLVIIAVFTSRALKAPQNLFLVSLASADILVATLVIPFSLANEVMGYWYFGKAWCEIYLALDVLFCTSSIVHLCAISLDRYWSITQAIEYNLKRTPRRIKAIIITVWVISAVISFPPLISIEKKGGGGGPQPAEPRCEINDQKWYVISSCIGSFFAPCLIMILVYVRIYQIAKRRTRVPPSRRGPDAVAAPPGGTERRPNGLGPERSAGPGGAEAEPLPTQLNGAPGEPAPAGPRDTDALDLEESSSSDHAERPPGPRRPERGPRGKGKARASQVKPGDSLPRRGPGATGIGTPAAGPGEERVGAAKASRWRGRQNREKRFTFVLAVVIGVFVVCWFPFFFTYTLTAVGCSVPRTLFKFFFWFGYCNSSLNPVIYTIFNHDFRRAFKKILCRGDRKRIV
Briefly: Selectivity interaction (Panel of non-epigenetic targets (kinases, GPCRs, ion channels, and transporters, Eurofins) ) EUB0000271b ADRA2A. The following applies: at 1 µM.

Assay [14] concerns the target Ribosomal protein S6 kinase alpha-5 (Homo sapiens) (UniProt O75582). Briefly: Selectivity interaction (Kinase panel (DSF assay)) EUB0001558a RPS6KA5.

Dual specificity mitogen-activated protein kinase kinase 2 (Homo sapiens), sequence (P36507 whole entry): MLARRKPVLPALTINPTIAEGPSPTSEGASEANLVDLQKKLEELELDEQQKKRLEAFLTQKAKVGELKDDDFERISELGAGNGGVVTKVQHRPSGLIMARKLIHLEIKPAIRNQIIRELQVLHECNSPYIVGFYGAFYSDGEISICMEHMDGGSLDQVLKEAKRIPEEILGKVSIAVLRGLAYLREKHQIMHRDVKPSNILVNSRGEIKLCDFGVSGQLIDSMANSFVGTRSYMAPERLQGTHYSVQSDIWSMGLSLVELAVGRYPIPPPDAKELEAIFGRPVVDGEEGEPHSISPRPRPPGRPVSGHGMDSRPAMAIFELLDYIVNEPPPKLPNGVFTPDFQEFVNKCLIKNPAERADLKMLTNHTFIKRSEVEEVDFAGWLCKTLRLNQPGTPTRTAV
Hepatocyte growth factor receptor, sequence (P08581 whole entry): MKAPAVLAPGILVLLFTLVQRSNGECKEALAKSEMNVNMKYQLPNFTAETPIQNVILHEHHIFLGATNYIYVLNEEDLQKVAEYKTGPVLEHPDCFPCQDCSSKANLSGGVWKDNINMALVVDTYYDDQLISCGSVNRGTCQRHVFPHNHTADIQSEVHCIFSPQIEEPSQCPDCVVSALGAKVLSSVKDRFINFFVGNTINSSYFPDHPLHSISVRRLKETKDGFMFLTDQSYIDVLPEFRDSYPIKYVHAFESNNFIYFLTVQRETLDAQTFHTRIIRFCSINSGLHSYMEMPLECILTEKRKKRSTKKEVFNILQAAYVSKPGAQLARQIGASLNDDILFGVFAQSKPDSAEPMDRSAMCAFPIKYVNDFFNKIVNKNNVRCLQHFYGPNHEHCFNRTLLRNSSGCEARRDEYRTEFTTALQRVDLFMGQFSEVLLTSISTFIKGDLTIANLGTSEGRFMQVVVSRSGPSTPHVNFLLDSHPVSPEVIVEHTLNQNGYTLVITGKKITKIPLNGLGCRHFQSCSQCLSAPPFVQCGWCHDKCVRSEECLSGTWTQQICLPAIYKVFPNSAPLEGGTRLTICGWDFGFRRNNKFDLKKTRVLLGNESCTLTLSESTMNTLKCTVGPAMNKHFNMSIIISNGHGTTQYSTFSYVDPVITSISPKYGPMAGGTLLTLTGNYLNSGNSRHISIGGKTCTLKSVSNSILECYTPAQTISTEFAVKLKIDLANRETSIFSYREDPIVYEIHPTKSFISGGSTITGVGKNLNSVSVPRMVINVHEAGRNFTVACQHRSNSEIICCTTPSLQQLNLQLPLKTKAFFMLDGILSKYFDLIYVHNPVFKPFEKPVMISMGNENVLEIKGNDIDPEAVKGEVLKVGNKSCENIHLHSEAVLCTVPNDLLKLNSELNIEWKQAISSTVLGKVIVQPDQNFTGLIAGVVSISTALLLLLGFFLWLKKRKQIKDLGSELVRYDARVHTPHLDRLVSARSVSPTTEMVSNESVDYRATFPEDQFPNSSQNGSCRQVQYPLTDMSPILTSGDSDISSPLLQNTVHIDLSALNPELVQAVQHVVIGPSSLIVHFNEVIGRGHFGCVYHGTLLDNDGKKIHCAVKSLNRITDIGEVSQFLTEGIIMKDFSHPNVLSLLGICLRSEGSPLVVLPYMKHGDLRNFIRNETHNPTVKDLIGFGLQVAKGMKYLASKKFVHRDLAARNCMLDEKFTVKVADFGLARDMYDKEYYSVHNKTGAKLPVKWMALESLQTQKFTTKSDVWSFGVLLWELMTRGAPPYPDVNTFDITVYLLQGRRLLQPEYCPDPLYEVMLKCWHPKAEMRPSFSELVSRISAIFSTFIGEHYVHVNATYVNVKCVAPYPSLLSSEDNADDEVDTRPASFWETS
Glycogen synthase kinase-3 alpha, sequence (P49840 2-483 limits assumed): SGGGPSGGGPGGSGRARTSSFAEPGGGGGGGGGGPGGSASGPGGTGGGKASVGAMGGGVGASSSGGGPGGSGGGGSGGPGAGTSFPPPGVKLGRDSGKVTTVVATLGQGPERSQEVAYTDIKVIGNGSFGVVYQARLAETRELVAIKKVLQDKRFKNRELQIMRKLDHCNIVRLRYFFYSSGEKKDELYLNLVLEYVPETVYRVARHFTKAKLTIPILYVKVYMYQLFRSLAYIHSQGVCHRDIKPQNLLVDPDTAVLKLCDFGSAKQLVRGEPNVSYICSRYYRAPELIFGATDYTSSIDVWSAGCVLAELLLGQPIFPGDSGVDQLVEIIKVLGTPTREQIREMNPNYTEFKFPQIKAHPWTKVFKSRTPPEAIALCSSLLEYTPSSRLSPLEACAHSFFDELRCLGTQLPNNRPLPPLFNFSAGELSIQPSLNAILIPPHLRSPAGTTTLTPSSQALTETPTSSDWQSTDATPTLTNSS
Epidermal growth factor receptor (Homo sapiens), P00533 [G719C], sequence (P00533 whole entry G719C): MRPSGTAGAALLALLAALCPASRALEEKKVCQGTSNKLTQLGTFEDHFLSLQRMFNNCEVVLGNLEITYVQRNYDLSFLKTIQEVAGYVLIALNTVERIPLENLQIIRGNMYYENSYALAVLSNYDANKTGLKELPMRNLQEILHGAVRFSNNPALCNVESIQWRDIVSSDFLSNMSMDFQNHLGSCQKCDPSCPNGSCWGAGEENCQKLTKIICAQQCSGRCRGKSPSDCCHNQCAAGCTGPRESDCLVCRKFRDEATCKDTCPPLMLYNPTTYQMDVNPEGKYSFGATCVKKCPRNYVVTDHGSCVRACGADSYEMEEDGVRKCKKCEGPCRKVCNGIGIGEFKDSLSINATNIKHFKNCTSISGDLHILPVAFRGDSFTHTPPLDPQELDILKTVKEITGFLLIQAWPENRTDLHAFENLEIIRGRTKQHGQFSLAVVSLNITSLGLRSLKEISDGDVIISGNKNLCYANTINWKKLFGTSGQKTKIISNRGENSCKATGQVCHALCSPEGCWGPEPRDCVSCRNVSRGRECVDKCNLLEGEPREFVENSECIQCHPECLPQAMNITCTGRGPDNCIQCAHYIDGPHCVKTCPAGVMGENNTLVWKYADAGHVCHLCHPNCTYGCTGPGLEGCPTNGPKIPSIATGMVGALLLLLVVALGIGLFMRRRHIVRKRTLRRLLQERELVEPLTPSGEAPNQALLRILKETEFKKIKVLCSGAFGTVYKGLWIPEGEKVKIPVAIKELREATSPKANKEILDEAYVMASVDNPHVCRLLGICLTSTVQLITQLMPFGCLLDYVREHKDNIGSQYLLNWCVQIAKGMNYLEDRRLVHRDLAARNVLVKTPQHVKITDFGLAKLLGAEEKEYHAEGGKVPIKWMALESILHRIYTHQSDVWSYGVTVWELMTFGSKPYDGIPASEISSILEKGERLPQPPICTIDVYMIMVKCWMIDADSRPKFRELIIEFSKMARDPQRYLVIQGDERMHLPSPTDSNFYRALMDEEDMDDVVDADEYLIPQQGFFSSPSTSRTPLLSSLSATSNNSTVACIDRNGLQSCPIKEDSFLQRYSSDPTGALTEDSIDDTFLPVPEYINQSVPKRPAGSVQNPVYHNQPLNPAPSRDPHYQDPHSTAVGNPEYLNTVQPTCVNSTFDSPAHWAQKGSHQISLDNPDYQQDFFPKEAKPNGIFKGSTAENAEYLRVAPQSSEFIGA

On to `COCC(=O)NC/C=C/c1ccc2ncnc(Nc3ccc(Oc4ccc(C)nc4)c(C)c3)c2c1` [CP-724714], for which the % of control in assay [1] turned out to be 0%.
Regarding `N#Cc1cccc(-c2c[nH]c3ncnc(N4CCOCC4)c23)c1`, the % of inhibition in assay [2] turned out to be 16%.
In [3], `Cc1cc(F)c(C(=O)Nc2cccc(-c3nncn3C(C)C)n2)cc1-n1cnc(C2CC2)c1` gave a % of control of 100%.
For `CC[C@@H]1[C@H](F)C(=O)N[C@@H]1COc1nccc2cc(C(N)=O)c(OC)cc12` [ZIMLOVISERTIB], the % of inhibition in assay [4] was -10.2%; in assay [5], -18.4%; in assay [6], 0%.
On to `C=CC(=O)Nc1cc(-n2c(=O)ccc3cnc4ccc(-c5ccc(NS(C)(=O)=O)cc5)cc4c32)ccc1C`, for which the figures for the % of control in assay [7] (at 1 µM) and in [7] (at 10 µM) were 96% and 66%, respectively.
On to `CN(C)C/C=C/C(=O)Nc1ccc(C(=O)N2CCCC(Nc3ncc(Cl)c(-c4c[nH]c5ccccc45)n3)C2)cc1` (stereo not given), for which the % of control in assay [8] was 5.7%; in assay [9] it was 69%; in assay [10], 69%; in assay [11], 84%.
Consider `CN(C)CCCOc1ccc(-c2cc(NCCCn3cccn3)nc(S(C)(=O)=O)n2)cc1`, for which the dTM in assay [12] was < 2 K.
Consider `Cc1cc(C)cc([C@@H]2c3cc(C)ccc3NC(=O)CN2C(=O)c2ccc(Br)s2)c1`, for which the % of inhibition in assay [13] is -8%.
Take `CC(C)(O)[C@H](F)CN1Cc2cc(NC(=O)c3cnn4cccnc34)c(N3CCOCC3)cc2C1=O`: the dTM in assay [14] was found to be 0.5 K.
